Measured values reported in ChEMBL document CHEMBL5233266, “β-Carboline as a Privileged Scaffold for Multitarget Strategies in Alzheimer's Disease Therapy” (J Med Chem, 2021).

Experiments:
Histone deacetylase 4 = Histone deacetylase 4 (Homo sapiens, UniProt P56524); assay: Inhibition of HDAC4 (unknown origin)
Histone deacetylase 8 = Histone deacetylase 8 (Homo sapiens, UniProt Q9BY41); assay: Inhibition of HDAC8 (unknown origin)
Histone deacetylase 1 = Histone deacetylase 1 (Homo sapiens, UniProt Q13547); assay: Inhibition of HDAC1 (unknown origin)
Chain of Histone deacetylase 1 (Q13547 whole entry): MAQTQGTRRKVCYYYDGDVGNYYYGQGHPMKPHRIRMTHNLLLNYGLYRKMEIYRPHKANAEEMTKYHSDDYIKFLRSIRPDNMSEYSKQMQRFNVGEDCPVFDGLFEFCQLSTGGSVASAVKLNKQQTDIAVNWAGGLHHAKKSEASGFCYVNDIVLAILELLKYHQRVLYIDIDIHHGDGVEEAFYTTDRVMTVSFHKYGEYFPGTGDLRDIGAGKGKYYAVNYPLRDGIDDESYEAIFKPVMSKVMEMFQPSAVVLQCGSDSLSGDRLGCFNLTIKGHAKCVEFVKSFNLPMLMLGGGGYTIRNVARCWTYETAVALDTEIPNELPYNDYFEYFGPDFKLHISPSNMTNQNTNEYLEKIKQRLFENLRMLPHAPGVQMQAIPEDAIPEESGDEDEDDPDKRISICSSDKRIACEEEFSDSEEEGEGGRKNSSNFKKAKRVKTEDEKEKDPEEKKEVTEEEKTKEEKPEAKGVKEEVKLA

Chain of Histone deacetylase 8 (Q9BY41 whole entry): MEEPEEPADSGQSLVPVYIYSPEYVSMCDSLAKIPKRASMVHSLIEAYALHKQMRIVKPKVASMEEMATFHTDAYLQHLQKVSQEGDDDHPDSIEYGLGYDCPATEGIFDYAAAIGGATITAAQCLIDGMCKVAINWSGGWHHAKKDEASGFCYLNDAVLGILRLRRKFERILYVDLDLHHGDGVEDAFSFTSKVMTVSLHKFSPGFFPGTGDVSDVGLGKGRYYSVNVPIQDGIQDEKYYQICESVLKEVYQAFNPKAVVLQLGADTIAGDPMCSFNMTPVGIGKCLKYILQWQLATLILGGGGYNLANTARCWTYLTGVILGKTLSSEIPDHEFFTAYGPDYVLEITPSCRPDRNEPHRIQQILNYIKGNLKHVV
Chain of Histone deacetylase 4 (P56524 whole entry): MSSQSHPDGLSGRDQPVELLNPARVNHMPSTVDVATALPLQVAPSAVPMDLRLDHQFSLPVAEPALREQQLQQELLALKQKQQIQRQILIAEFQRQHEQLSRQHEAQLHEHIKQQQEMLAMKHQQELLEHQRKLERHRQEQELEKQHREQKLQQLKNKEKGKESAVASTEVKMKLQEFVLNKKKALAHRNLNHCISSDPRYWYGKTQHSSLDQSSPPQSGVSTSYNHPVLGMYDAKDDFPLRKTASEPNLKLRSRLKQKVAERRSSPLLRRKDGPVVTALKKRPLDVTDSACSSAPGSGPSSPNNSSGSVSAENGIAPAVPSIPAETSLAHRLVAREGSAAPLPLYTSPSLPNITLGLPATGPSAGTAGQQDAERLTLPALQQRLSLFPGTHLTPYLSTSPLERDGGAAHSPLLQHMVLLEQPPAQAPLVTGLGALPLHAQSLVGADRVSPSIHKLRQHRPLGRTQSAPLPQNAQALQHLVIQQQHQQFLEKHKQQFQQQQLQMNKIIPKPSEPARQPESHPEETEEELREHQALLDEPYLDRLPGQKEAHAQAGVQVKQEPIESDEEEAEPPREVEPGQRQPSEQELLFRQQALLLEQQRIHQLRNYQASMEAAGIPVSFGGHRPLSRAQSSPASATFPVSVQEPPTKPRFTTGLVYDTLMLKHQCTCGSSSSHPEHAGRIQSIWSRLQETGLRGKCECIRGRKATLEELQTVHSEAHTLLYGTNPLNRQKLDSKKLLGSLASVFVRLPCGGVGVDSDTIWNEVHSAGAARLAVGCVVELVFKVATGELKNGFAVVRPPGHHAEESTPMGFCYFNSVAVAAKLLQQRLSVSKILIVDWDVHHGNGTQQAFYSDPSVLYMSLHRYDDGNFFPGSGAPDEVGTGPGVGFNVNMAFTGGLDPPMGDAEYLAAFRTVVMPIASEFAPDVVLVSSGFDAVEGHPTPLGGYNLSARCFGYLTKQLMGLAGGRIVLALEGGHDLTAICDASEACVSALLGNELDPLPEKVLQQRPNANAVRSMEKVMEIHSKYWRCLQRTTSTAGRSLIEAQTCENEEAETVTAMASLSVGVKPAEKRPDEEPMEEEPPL

Work on `COc1ccc(-c2nc(C(=O)NCc3ccc(C(=O)NO)cc3)cc3c2[nH]c2ccccc23)cc1` yielded an IC50 (Histone deacetylase 4) of over 1000 nM, an IC50 (Histone deacetylase 8) of over 1000 nM and an IC50 (Histone deacetylase 1) of 4.1 nM.
